# pIC50: −log10 of the molar value. Where “and” joins values, the source holds several entries; their conditions need not be identical. Equal entries are not always repeated.
# Tested on: T-47D spheroids with HUVEC/MSC, viability
# Assay: Anticancer human tumor T-47D cell line growth inhibition [PI3K];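 further: spheroids exposed to agents for seven days before reading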;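 on viability, T/C: percent of DMSO vehicle control luminescence so 100% = untreated growth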
# Conditions: for viability, T/C: stronger effect = lower value
# Procedure, shortened: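 Multi-cell spheroids combine tumor cells with HUVEC and human MSCs, treated with targeted agents alone or with inavolisib, alpelisib, duvelisib or copanlisib. Concentrations fall in half-log steps from at or near clinical Cmax, or from 10 microM where Cmax is unknown; viability read-out.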
# [1] = curve of first compound, second compound 0.0316 µM
# [2] = curve of first compound, second compound 0.1 µM
# [3] = curve of first compound, second compound 0.316 µM
# [4] = curve of first compound, second compound 1 µM
# [5] = second compound 0.0316 µM, first compound 0.0316 µM
# [6] = second compound 0.0316 µM, first compound 0.1 µM
# [7] = second compound 0.1 µM, first compound 0.0316 µM
# [8] = second compound 0.1 µM, first compound 0.1 µM
# [9] = second compound 0.316 µM, first compound 0.0316 µM
# [10] = second compound 0.316 µM, first compound 0.1 µM
# [11] = second compound 1 µM, first compound 0.0316 µM
# [12] = second compound 1 µM, first compound 0.1 µM
# [13] = curve of first compound, second compound 0.00316 µM
# [14] = curve of first compound, second compound 0.01 µM
# [15] = second compound 0.00316 µM, first compound 0.0316 µM
# [16] = second compound 0.00316 µM, first compound 0.1 µM
# [17] = second compound 0.00316 µM, first compound 0.316 µM
# [18] = second compound 0.00316 µM, first compound 1 µM
# [19] = second compound 0.00316 µM, first compound 3.16 µM
# [20] = second compound 0.00316 µM, first compound 10 µM
# [21] = second compound 0.01 µM, first compound 0.0316 µM
# [22] = second compound 0.01 µM, first compound 0.1 µM
# [23] = second compound 0.01 µM, first compound 0.316 µM
# [24] = second compound 0.01 µM, first compound 1 µM
# [25] = second compound 0.01 µM, first compound 3.16 µM
# [26] = second compound 0.01 µM, first compound 10 µM
# [27] = second compound 0.0316 µM, first compound 0.316 µM
# [28] = second compound 0.0316 µM, first compound 1 µM
# [29] = second compound 0.0316 µM, first compound 3.16 µM
# [30] = second compound 0.0316 µM, first compound 10 µM
# [31] = second compound 0.1 µM, first compound 0.316 µM
# [32] = second compound 0.1 µM, first compound 1 µM
# [33] = second compound 0.1 µM, first compound 3.16 µM
# [34] = second compound 0.1 µM, first compound 10 µM
# [35] = second compound 0.316 µM, first compound 0.316 µM
# [36] = second compound 0.316 µM, first compound 1 µM
# [37] = second compound 0.316 µM, first compound 3.16 µM
# [38] = second compound 0.316 µM, first compound 10 µM
# [39] = second compound 1 µM, first compound 0.316 µM
# [40] = second compound 1 µM, first compound 1 µM
# [41] = second compound 1 µM, first compound 3.16 µM
# [42] = second compound 1 µM, first compound 10 µM
smiles,measurement,setting,value
CC(=O)c1c(C)c2cnc(Nc3ccc(N4CCNCC4)cn3)nc2n(C2CCCC2)c1=O + CC(Nc1ncnc2nc[nH]c12)c1cc2cccc(Cl)c2c(=O)n1-c1ccccc1,pIC50,[1],< 7.00
same,pIC50,[2],< 7.00
same,pIC50,[3],< 7.00
same,pIC50,[4],< 7.00
same,pIC50,"curve of first compound, second compound 3.16 µM",< 7.00
same,pIC50,"curve of first compound, second compound 10 µM",< 7.00
same,"viability, T/C","second compound 0.0316 µM, first compound 0.000316 µM",96%
same,"viability, T/C","second compound 0.0316 µM, first compound 0.001 µM",99%
same,"viability, T/C","second compound 0.0316 µM, first compound 0.00316 µM",100%
same,"viability, T/C","second compound 0.0316 µM, first compound 0.01 µM",91.2%
same,"viability, T/C",[5],86.5%
same,"viability, T/C",[6],71.3%
same,"viability, T/C","second compound 0.1 µM, first compound 0.000316 µM",91.2%
same,"viability, T/C","second compound 0.1 µM, first compound 0.001 µM",90.2%
same,"viability, T/C","second compound 0.1 µM, first compound 0.00316 µM",96.1%
same,"viability, T/C","second compound 0.1 µM, first compound 0.01 µM",73.3%
same,"viability, T/C",[7],100%
same,"viability, T/C",[8],83.6%
same,"viability, T/C","second compound 0.316 µM, first compound 0.000316 µM",92.8%
same,"viability, T/C","second compound 0.316 µM, first compound 0.001 µM",93.7%
same,"viability, T/C","second compound 0.316 µM, first compound 0.00316 µM",82%
same,"viability, T/C","second compound 0.316 µM, first compound 0.01 µM",90.6%
same,"viability, T/C",[9],86.9%
same,"viability, T/C",[10],84%
same,"viability, T/C","second compound 1 µM, first compound 0.000316 µM",80.1%
same,"viability, T/C","second compound 1 µM, first compound 0.001 µM",73.8%
same,"viability, T/C","second compound 1 µM, first compound 0.00316 µM",79.6%
same,"viability, T/C","second compound 1 µM, first compound 0.01 µM",89%
same,"viability, T/C",[11],76.6%
same,"viability, T/C",[12],80.6%
same,"viability, T/C","second compound 3.16 µM, first compound 0.000316 µM",81.2%
same,"viability, T/C","second compound 3.16 µM, first compound 0.001 µM",88.6%
same,"viability, T/C","second compound 3.16 µM, first compound 0.00316 µM",100%
same,"viability, T/C","second compound 3.16 µM, first compound 0.01 µM",85.1%
same,"viability, T/C","second compound 3.16 µM, first compound 0.0316 µM",85.8%
same,"viability, T/C","second compound 3.16 µM, first compound 0.1 µM",69.8%
same,"viability, T/C","second compound 10 µM, first compound 0.000316 µM",88.4%
same,"viability, T/C","second compound 10 µM, first compound 0.001 µM",76.3%
same,"viability, T/C","second compound 10 µM, first compound 0.00316 µM",78%
same,"viability, T/C","second compound 10 µM, first compound 0.01 µM",70.8%
same,"viability, T/C","second compound 10 µM, first compound 0.0316 µM",80.6%
same,"viability, T/C","second compound 10 µM, first compound 0.1 µM",65.2%
Cn1nccc1Nc1nccc(-c2ccn(C(CO)c3ccc(Cl)c(F)c3)c(=O)c2)n1 (configuration not stated) + COc1c(OCCCN2CCOCC2)ccc2c3n(c(=NC(=O)c4cnc(N)nc4)nc12)CCN3,pIC50,[13],< 5.00
same,pIC50,[14],< 5.00
same,pIC50,[1],< 5.00
same,pIC50,[2],> 7.50
same,pIC50,[3],> 7.50
same,pIC50,[4],> 7.50
same,"viability, T/C",[15],107%
same,"viability, T/C",[16],94%
same,"viability, T/C",[17],94.2%
same,"viability, T/C",[18],102%
same,"viability, T/C",[19],99.9%
same,"viability, T/C",[20],104%
same,"viability, T/C",[21],104%
same,"viability, T/C",[22],88%
same,"viability, T/C",[23],107%
same,"viability, T/C",[24],83.6%
same,"viability, T/C",[25],103%
same,"viability, T/C",[26],86.4%
same,"viability, T/C",[5],70%
same,"viability, T/C",[6],72.3%
same,"viability, T/C",[27],70.1%
same,"viability, T/C",[28],77%
same,"viability, T/C",[29],67.5%
same,"viability, T/C",[30],69.6%
same,"viability, T/C",[7],40.9%
same,"viability, T/C",[8],39.7%
same,"viability, T/C",[31],38.3%
same,"viability, T/C",[32],48.5%
same,"viability, T/C",[33],46.6%
same,"viability, T/C",[34],48.2%
same,"viability, T/C",[9],20.7%
same,"viability, T/C",[10],20.4%
same,"viability, T/C",[35],17.8%
same,"viability, T/C",[36],24.5%
same,"viability, T/C",[37],20.7%
same,"viability, T/C",[38],22.7%
same,"viability, T/C",[11],8.45%
same,"viability, T/C",[12],6.31%
same,"viability, T/C",[39],9.37%
same,"viability, T/C",[40],7.73%
same,"viability, T/C",[41],9.27%
same,"viability, T/C",[42],7.43%
C=CC(=O)N1CCN(c2nc(=O)n(-c3c(C)ccnc3C(C)C)c3nc(-c4c(O)cccc4F)c(F)cc23)C(C)C1 (configuration not stated) + CC(Nc1ccc2c(c1)OCCn1cc(N3C(=O)OCC3C(F)F)nc1-2)C(N)=O,pIC50,[13],< 5.00
same,pIC50,[14],< 5.00
same,pIC50,[1],< 5.00
same,pIC50,[2],< 5.00
same,pIC50,[3],< 5.00
same,pIC50,[4],> 7.50
same,"viability, T/C",[15],87.5%
same,"viability, T/C",[16],103%
same,"viability, T/C",[17],78.8%
same,"viability, T/C",[18],86.3%
same,"viability, T/C",[19],97.3%
same,"viability, T/C",[20],113%
same,"viability, T/C",[21],104%
same,"viability, T/C",[22],67.8%
same,"viability, T/C",[23],106%
same,"viability, T/C",[24],84.8%
same,"viability, T/C",[25],99.9%
same,"viability, T/C",[26],92.1%
same,"viability, T/C",[5],99%
same,"viability, T/C",[6],84.8%
same,"viability, T/C",[27],95.9%
same,"viability, T/C",[28],98%
same,"viability, T/C",[29],88.2%
same,"viability, T/C",[30],88.3%
same,"viability, T/C",[7],81.2%
same,"viability, T/C",[8],83.6%
same,"viability, T/C",[31],83.8%
same,"viability, T/C",[32],98.5%
same,"viability, T/C",[33],82.9%
same,"viability, T/C",[34],96.8%
same,"viability, T/C",[9],71.2%
same,"viability, T/C",[10],73.3%
same,"viability, T/C",[35],77%
same,"viability, T/C",[36],74.5%
same,"viability, T/C",[37],75.9%
same,"viability, T/C",[38],79.2%
same,"viability, T/C",[11],48.5%
same,"viability, T/C",[12],47.2%
same,"viability, T/C",[39],59%
same,"viability, T/C",[40],54.2%
same,"viability, T/C",[41],63.4%
same,"viability, T/C",[42],67.2%
C[C@@H](NC(=O)c1ncnc(N)c1Cl)c1ncc(C(=O)Nc2cc(C(F)(F)F)c(Cl)cn2)s1,"viability, T/C",compound 0.0316 µM,93.7% [middle of 4 runs]
same,"viability, T/C",compound 0.316 µM,89.2% and 106% (2×) and 91.6%
same,"viability, T/C",compound 3.16 µM,99.1% [middle of 4 runs]
same,"viability, T/C",compound 10 µM,91% [middle of 4 runs]
same,pIC50,curve of compound,< 5.00
CCN1CCN(Cc2ccc(Nc3ncc(F)c(-c4cc(F)c5nc(C)n(C(C)C)c5c4)n3)nc2)CC1,"viability, T/C",compound 0.00316 µM,104% [middle of 4 runs]
same,"viability, T/C",compound 0.01 µM,91.4% [middle of 4 runs]
same,"viability, T/C",compound 0.0316 µM,102% [middle of 4 runs]
same,"viability, T/C",compound 0.1 µM,90.4% [middle of 4 runs]
same,"viability, T/C",compound 0.316 µM,90.4% [middle of 4 runs]
same,"viability, T/C",compound 1 µM,91.2% [middle of 4 runs]
same,pIC50,curve of compound,< 6.00
CC1(C)CCC(CN2CCN(c3ccc(C(=O)NS(=O)(=O)c4ccc(NCC5CCOCC5)c([N+](=O)[O-])c4)c(Oc4cnc5[nH]ccc5c4)c3)CC2)=C(c2ccc(Cl)cc2)C1,"viability, T/C",compound 0.0316 µM,93.2% [middle of 4 runs]
same,"viability, T/C",compound 0.1 µM,99% [middle of 4 runs]
same,"viability, T/C",compound 0.316 µM,99% and 91.9% and 111% (2×)
same,pIC50,curve of compound,< 5.00

# — PubChem BioAssay AID1963959 (Molecular Pharmacology Branch, DTP, NCI, 2024)
